Drawing on ChEMBL document CHEMBL3817823 (J Med Chem, 2016), this text covers inhibition and CLH for 1 compound.

Data set [1] addresses N-lysine methyltransferase SMYD2 (Homo sapiens, UniProt Q9NRG4). The settings on record: KYSE-150, 0.5 to 10 uM.
Description: Inhibition of 2xc-myc-tagged human SMYD2 transfected in human KYSE-150 cells assessed as reduction in p53 methylation at 0.5 to 10 uM after 5 days by ICW assay
For data set [2], the target named is Protein arginine N-methyltransferase 5 (Homo sapiens) (UniProt O14744). The data set can be described thus: Inhibition of PRMT5 (unknown origin) at 1 to 50 uM by scintillation proximity assay. For orientation: In a scintillation proximity assay essentially only radioactivity close to the scintillant gives light.
The next data set deals with Hepatocyte. In words: Clearance in rat hepatocytes at 1 uM measured up to 90 mins by LC-MS/MS analysis. The data set is classed as ADME, cell-based.
The target in data set [3] is Histone-lysine N-methyltransferase NSD3 (Homo sapiens) (UniProt Q9BZ95). In words: Inhibition of NSD3 (unknown origin) at 1 to 50 uM by TCA precipitation assay.

Active and inactive are the calls of the source. The rule behind the calls is not given here.

Histone-lysine N-methyltransferase NSD3 (Homo sapiens), sequence (Q9BZ95 whole entry): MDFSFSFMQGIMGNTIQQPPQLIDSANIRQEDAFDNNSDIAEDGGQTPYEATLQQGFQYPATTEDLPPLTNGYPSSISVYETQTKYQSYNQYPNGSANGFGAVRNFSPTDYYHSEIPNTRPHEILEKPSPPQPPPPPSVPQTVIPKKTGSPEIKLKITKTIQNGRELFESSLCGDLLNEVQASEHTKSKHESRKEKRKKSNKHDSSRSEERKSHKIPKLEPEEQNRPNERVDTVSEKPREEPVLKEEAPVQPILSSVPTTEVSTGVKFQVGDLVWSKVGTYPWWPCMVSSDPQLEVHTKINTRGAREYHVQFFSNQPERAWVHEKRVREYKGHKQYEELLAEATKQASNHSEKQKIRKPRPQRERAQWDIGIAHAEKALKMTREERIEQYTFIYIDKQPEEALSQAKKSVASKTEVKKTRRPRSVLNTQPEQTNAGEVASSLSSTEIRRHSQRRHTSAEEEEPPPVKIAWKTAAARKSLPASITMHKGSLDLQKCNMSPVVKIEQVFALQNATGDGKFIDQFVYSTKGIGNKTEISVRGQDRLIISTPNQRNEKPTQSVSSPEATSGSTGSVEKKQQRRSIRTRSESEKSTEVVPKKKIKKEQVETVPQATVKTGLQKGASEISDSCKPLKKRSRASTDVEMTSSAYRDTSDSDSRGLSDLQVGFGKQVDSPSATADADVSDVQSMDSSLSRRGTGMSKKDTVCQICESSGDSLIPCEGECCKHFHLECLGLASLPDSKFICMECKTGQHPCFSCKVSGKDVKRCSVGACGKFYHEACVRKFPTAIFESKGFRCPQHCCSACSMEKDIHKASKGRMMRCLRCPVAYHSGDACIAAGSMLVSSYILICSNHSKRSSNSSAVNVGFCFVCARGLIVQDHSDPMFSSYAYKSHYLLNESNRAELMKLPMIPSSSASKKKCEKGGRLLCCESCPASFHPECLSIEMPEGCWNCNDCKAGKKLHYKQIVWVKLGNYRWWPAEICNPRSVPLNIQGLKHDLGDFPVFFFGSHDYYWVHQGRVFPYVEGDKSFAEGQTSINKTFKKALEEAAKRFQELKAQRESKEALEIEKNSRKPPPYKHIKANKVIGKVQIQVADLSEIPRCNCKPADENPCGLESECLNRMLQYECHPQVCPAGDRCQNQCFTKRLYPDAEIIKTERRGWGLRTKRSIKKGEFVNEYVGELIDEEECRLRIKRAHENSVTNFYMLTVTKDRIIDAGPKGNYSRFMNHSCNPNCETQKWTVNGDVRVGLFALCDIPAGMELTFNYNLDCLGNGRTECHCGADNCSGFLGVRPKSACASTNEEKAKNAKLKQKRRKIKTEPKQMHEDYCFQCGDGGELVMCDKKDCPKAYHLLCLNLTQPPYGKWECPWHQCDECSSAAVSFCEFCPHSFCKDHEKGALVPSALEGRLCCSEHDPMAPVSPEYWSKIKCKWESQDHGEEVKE
Protein arginine N-methyltransferase 5 (Homo sapiens), sequence (O14744 whole entry): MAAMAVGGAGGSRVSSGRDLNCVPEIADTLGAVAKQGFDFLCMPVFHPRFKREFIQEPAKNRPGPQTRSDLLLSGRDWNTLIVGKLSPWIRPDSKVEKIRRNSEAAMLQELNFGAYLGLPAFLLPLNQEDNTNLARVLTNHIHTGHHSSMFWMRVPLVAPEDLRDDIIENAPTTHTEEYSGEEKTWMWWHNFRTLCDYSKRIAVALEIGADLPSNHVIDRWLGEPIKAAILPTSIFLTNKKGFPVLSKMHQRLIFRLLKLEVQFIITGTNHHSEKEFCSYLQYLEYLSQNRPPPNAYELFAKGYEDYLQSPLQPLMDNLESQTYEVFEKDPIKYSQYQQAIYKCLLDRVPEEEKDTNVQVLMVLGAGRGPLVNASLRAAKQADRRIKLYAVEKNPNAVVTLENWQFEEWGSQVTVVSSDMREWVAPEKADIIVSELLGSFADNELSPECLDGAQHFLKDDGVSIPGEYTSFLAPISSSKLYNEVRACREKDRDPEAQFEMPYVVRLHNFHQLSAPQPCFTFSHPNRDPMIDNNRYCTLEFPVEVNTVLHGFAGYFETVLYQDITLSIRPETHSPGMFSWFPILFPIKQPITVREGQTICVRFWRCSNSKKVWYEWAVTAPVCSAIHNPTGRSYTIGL
N-lysine methyltransferase SMYD2, sequence (Q9NRG4 whole entry): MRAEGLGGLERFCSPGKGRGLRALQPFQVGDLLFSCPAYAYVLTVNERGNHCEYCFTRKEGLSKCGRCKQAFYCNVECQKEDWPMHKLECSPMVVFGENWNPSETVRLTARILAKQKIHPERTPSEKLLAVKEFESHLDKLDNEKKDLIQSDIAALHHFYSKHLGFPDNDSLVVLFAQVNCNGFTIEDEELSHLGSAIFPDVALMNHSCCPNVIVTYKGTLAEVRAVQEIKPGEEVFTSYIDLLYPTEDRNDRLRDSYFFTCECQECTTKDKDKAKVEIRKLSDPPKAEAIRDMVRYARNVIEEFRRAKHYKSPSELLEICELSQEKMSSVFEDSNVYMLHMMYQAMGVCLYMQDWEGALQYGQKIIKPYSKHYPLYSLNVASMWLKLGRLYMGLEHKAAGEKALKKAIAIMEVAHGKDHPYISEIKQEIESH

`CCN(C(=O)CO)[C@H]1CN(/C(=N\C#N)Nc2cccc(OC(F)F)c2)N=C1c1ccc(Cl)c(Cl)c1`: the inhibition entry in data set [1] is “Active”. Further, the inhibition result in data set [2] and in data set [3] was “inactive” each time. In the data set with Hepatocyte, this compound showed a CLH of 2.5 L/h/kg.
